Columns and labels:
[1] = target: Tubulin alpha chain (Sus scrofa) (UniProt P02550); assay: The compound was evaluated in vitro in a tubulin polymerization assay, activity expressed as potency of compound relative to Paclitaxel.; type: functional
[2] = system: HCT-116; assay: The compound was evaluated in vitro for inhibition of human colon cancer cell line HCT116; type: functional, cell-based
[3] = system: HCT-116; assay: The compound was evaluated for the cytotoxicity against human colon cancer cell lines(HCT116), activity expressed as IC50 vs IC50 of Paclitaxel.; type: functional
[4] = system: M109; assay: The compound was evaluated in vivo for the T/C ratio against M-109 lung carcinoma.; type: functional, Mus musculus

Tubulin alpha chain (Sus scrofa), sequence (P02550 whole entry, looked up): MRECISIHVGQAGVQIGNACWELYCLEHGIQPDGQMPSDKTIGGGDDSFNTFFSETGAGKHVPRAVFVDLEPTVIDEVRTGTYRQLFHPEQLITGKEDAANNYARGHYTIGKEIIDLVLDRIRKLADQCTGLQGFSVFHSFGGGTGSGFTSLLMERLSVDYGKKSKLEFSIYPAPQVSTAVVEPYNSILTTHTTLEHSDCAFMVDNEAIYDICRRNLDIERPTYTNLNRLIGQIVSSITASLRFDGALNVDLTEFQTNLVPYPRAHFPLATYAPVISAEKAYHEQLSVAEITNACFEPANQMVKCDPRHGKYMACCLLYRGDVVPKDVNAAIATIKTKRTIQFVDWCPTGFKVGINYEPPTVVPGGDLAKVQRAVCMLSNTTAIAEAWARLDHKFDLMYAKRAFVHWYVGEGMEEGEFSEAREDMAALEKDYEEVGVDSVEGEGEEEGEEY

| Ratio [1] | IC50 [2] | SMILES | Ratio [3] | T/C [4] |
| --- | --- | --- | --- | --- |
| > 100 | > 200 nM | CC(=O)O[C@H]1C(=O)[C@@]2(C)[C@H]([C@H](OC(=O)c3ccccc3)[C@]3(O)C[C@H](OC(=O)[C@H](O)[C@@H](O)c4ccccc4)C(C)=C1C3(C)C)[C@]1(OC(C)=O)CO[C@@H]1C[C@@H]2O | >100 |  |
| 7.8 | 10.3 nM | CC(=O)O[C@@]12CO[C@@H]1C[C@H](O)[C@@]1(C)C(=O)[C@H](O)C3=C(C)[C@@H](OC(=O)[C@H](O)[C@@H](OC(=O)NC(C)(C)C)c4ccccc4)C[C@@](O)([C@@H](OC(=O)c4ccccc4)C12)C3(C)C (some centres not stated) | 5.1 |  |
|  |  | CC(=O)O[C@H]1C(=O)[C@@]2(C)[C@H]([C@H](OC(=O)c3ccccc3)[C@]3(O)C[C@H](OC(=O)[C@H](O)[C@@H](NC(=O)c4ccccc4)c4ccccc4)C(C)=C1C3(C)C)[C@]1(OC(C)=O)CO[C@@H]1C[C@@H]2O [PACLITAXEL] | 1 | 166% |
| 1.5 | 6.6 nM | CC(=O)O[C@H]1C(=O)[C@@]2(C)[C@H]([C@H](OC(=O)c3ccccc3)[C@]3(O)C[C@H](OC(=O)[C@H](O)[C@@H](OC(=O)NC(C)(C)C)c4ccccc4)C(C)=C1C3(C)C)[C@]1(OC(C)=O)CO[C@@H]1C[C@@H]2O | 3.3 | 166% |

From ChEMBL document CHEMBL1152107 (Bioorg Med Chem Lett, 1997)
